Laboratory results reported in PMC6522372 (Nature chemical biology, 2019).
Changes are numbered by the printed parent chain. In names and notes the source's numbering stands.

T1: McsB (Geobacillus stearothermophilus, UniProt P0DMM5)
T1 sequence (P0DMM5 1-363): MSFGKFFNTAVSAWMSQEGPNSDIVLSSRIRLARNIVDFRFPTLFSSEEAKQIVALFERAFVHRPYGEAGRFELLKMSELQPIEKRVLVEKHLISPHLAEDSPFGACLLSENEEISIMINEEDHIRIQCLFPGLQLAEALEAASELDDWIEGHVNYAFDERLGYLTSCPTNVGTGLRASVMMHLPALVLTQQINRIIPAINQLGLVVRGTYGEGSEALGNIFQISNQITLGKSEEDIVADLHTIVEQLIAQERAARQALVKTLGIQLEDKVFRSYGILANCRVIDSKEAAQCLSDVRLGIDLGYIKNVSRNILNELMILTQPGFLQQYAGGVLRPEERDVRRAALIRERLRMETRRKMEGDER

T2: McsB (Geobacillus stearothermophilus, UniProt P0DMM5)
T2 sequence (P0DMM5 1-355): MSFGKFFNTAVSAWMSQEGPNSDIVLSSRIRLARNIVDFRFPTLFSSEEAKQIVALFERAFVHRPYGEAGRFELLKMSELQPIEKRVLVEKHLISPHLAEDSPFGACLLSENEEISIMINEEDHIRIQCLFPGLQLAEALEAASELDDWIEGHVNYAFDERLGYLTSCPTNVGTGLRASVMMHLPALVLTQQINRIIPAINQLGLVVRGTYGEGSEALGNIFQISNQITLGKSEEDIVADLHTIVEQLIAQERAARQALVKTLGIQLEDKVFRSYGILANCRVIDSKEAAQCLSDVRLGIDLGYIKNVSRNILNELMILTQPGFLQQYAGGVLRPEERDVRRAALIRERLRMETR

B1: full-length McsB R338A/D339A (enzyme)
chain: T1 sequence (P0DMM5 1-363) with R338A, D339A

What was measured:
McsB [1] = biological target: T1, McsB; experiment: SPR, steady-state; assay type: binding
McsB [2] = biological target: T2, McsB; experiment: X-ray crystal structure; assay type: binding
SEC-MALS = biological target: the molecule itself; experiment: SEC-MALS

| Molecule | Kd (McsB [1]) [µM] | also measured |
| --- | --- | --- |
| Nc1ncnc2c1ncn2[C@@H]1O[C@H](COP(=O)(O)OP(=O)(O)O)[C@@H](O)[C@H]1O [ADP] | 208 ± 60 |  |
| Nc1ncnc2c1ncn2[C@@H]1O[C@H](COP(=O)(O)OP(N)(=O)O)[C@@H](O)[C@H]1O [AMP-PN] |  | X-ray crystal structure (soak with AMP-PNP, hydrolysed to AMP-PN) (McsB [2]): the Mg⋅ATP-binding site shows a clear electron density for AMP-PN |
| Nc1ncnc2c1ncn2[C@@H]1O[C@H](COP(=O)(O)OP(=O)(O)OP(=O)(O)O)[C@@H](O)[C@H]1O [ATP] | 262 ± 27 |  |
| B1 |  | stoichiometry N (SEC-MALS): 2 |
